Laboratory results from the supplement of paper PMC10307832.

Experiments:
Assay in all cases: relative viability (nuclei count vs DMSO), 5 days (fraction); higher = more cells survive
TPCA-1 + Decitabine = compound: C1=CC(=CC=C1C2=CC(=C(S2)NC(=O)N)C(=O)N)F [TPCA-1] + Nc1ncn([C@H]2C[C@H](O)[C@@H](CO)O2)c(=O)n1 [Decitabine] (partner 2 µM)
Procedure, shortened: (§1)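 Five library-drug doses in √10 steps were combined with a fixed anchor-drug dose, or a single drug was given alone, by pin tool to lung cancer cell lines in 1536-well plates the day after seeding. Nuclei were stained and counted after 5 days. Relative viability is the nuclei count in treated wells over that in vehicle wells, taken as the median of duplicate plates.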

[1] = compound: C[C@]12O[C@H](C[C@]1(O)CO)n1c3ccccc3c3c4c(c5c6ccccc6n2c5c31)CNC4=O [Lestaurtinib] + CS(=O)(=O)N1CCN(Cc2cc3nc(-c4cccc5[nH]ncc45)nc(N4CCOCC4)c3s2)CC1 [Pictilisib] (partner 1 µM)
Procedure, shortened: as §1

[2] = compound: C1/C(=C\C2=CC=CS2)/C(=O)/C(=C/C3=CC=CS3)/C1 + Cc1nc(NC(=O)N2CCC[C@H]2C(N)=O)sc1-c1ccnc(C(C)(C)C(F)(F)F)c1 [Alpelisib] (partner 2 µM)
Procedure, shortened: as §1

[3] = compound: C[C@]12O[C@H](C[C@]1(O)CO)n1c3ccccc3c3c4c(c5c6ccccc6n2c5c31)CNC4=O [Lestaurtinib] + N=C(N)NC(=N)NCCc1ccccc1 [Phenformin] (partner 250 µM)
Procedure, shortened: as §1

Cell Line	relative viability (TPCA-1 + Decitabine; first compound 0.04 µM)	relative viability (TPCA-1 + Decitabine; first compound 0.1265 µM)	relative viability (TPCA-1 + Decitabine; first compound 0.4 µM)	relative viability (TPCA-1 + Decitabine; first compound 1.265 µM)	relative viability (TPCA-1 + Decitabine; first compound 4 µM)	relative viability ([1]; first compound 0.005 µM)	relative viability ([1]; first compound 0.01581 µM)	relative viability ([1]; first compound 0.05 µM)	relative viability ([1]; first compound 0.1581 µM)	relative viability ([1]; first compound 0.5 µM)	relative viability ([2]; first compound 0.2 µM)	relative viability ([2]; first compound 0.6325 µM)	relative viability ([2]; first compound 2 µM)	relative viability ([2]; first compound 6.325 µM)	relative viability ([2]; first compound 20 µM)	relative viability ([3]; first compound 0.005 µM)	relative viability ([3]; first compound 0.01581 µM)	relative viability ([3]; first compound 0.05 µM)	relative viability ([3]; first compound 0.1581 µM)	relative viability ([3]; first compound 0.5 µM)
NCI-H661	0.533	0.58	0.597	0.602	0.436	0.35	0.461	0.411	0.352	0.336	0.611	0.792	0.838	0.515	0.7	0.271	0.277	0.303	0.251	0.248
EMC-BAC-2	0.997	0.972	0.939	0.852	0.898	0.58	0.504	0.427	0.32	0.239	0.743	0.75	0.694	0.655	0.696	0.476	0.567	0.424	0.364	0.26
NCI-H1355	0.365	0.35	0.342	0.346	0.354	0.412	0.363	0.314	0.389	0.273	0.794	0.722	0.758	0.72	0.804	0.455	0.465	0.374	0.391	0.263
NCI-H23	0.319	0.277	0.289	0.317	0.262	0.5	0.468	0.353	0.375	0.204	0.705	0.899	0.706	0.483	0.742	0.835	0.756	0.762	0.813	0.457
NCI-H1651	0.66	0.578	0.578	0.546	0.217	0.59	0.736	0.309	0.542	0.286	1.11	0.899	1.03	–	0.975	0.326	0.429	0.295	0.329	0.184
NCI-H1975	0.393	0.343	0.403	0.387	0.188	0.275	0.252	0.205	0.217	0.171	0.736	0.627	0.617	0.592	0.62	0.464	0.44	0.363	0.353	0.275
COR-L23	0.498	0.394	0.466	0.385	0.403	0.688	0.723	–	0.332	0.208	0.772	0.829	0.818	0.722	0.686	0.527	0.551	0.256	0.327	0.14
HCC-44	1.1	0.841	0.908	0.879	0.887	0.528	0.758	0.466	0.569	0.448	0.751	0.856	0.813	0.668	0.799	0.194	0.193	0.173	0.283	0.185
LOU-NH91	0.835	0.749	0.793	0.792	0.776	0.539	0.482	0.517	0.444	0.314	0.776	0.746	0.769	0.671	0.729	0.677	0.722	0.647	0.506	0.362
NCI-H441	0.252	0.247	0.229	0.48	0.239	0.346	0.342	0.215	0.299	0.171	0.819	0.832	0.719	0.578	0.737	0.885	0.854	0.533	0.767	0.555
NCI-H647	0.475	0.433	0.385	0.4	0.346	0.413	0.289	0.197	0.193	0.105	1.14	1.32	1.08	1	1.13	0.354	0.444	0.181	0.11	0.104
NCI-H1915	0.266	0.253	0.258	0.255	0.251	0.945	0.966	0.654	0.418	0.282	1.05	1.06	1.09	0.976	1.03	0.349	0.37	0.311	0.34	0.204
NCI-H1734	0.58	0.468	0.531	0.517	0.454	0.444	0.399	0.316	0.251	0.196	0.725	0.666	0.713	0.588	0.682	0.385	0.391	0.255	0.208	0.18
NCI-H1993	0.604	0.541	0.541	0.584	0.508	0.802	0.724	0.69	0.716	0.663	0.698	0.655	0.633	0.703	0.637	0.559	0.547	0.527	0.457	0.486
LK-2	0.347	0.21	0.331	0.27	0.175	0.57	0.648	0.481	0.433	0.28	0.94	1.02	0.856	1.13	0.813	0.542	0.738	0.275	0.233	0.217
HCC-78	0.788	0.698	0.565	0.711	0.529	0.19	0.225	0.203	0.136	0.169	0.349	0.313	0.359	0.321	0.342	0.658	0.816	0.556	0.425	0.406

Cell Line	relative viability (TPCA-1 + Decitabine; first compound 0.04 µM)	relative viability (TPCA-1 + Decitabine; first compound 0.1265 µM)	relative viability (TPCA-1 + Decitabine; first compound 0.4 µM)	relative viability (TPCA-1 + Decitabine; first compound 1.265 µM)	relative viability (TPCA-1 + Decitabine; first compound 4 µM)	relative viability ([1]; first compound 0.005 µM)	relative viability ([1]; first compound 0.01581 µM)	relative viability ([1]; first compound 0.05 µM)	relative viability ([1]; first compound 0.1581 µM)	relative viability ([1]; first compound 0.5 µM)	relative viability ([2]; first compound 0.2 µM)	relative viability ([2]; first compound 0.6325 µM)	relative viability ([2]; first compound 2 µM)	relative viability ([2]; first compound 6.325 µM)	relative viability ([2]; first compound 20 µM)	relative viability ([3]; first compound 0.005 µM)	relative viability ([3]; first compound 0.01581 µM)	relative viability ([3]; first compound 0.05 µM)	relative viability ([3]; first compound 0.1581 µM)	relative viability ([3]; first compound 0.5 µM)
NCI-H2405	0.823	0.664	0.748	0.712	0.717	0.417	0.404	0.356	0.345	0.202	0.945	0.766	0.79	0.797	0.87	0.426	0.392	0.387	0.28	0.284
HOP-62	0.261	0.198	0.215	0.198	0.214	0.742	0.693	0.642	0.604	0.427	1.01	0.741	1.09	0.764	0.93	0.637	0.768	0.485	0.613	0.274
NCI-H650	0.347	0.359	0.338	0.331	0.3	0.816	0.818	0.63	0.399	0.332	1.2	1.19	1.19	0.935	1.05	0.427	0.415	0.362	0.265	0.314
NCI-H358	0.224	0.215	0.217	0.214	0.153	0.346	0.28	0.28	0.221	0.181	1.11	0.799	0.861	0.668	0.88	0.338	0.295	0.208	0.137	0.0849
BEN	0.875	0.625	0.813	0.838	0.387	0.641	0.693	0.452	0.481	0.281	1.02	0.981	0.977	0.972	1.07	0.292	0.316	0.267	0.237	0.196
SW 1573	0.621	0.402	0.438	0.677	0.395	0.624	0.562	0.454	0.314	0.174	0.785	0.905	0.838	0.547	0.757	0.421	0.439	0.214	0.28	0.0937
SK-MES-1	0.39	0.348	0.37	0.342	0.321	0.322	0.312	0.259	0.262	0.177	1.04	0.912	0.879	0.854	0.798	0.693	0.59	0.484	0.441	0.186
NCI-H1755	0.649	0.709	0.709	0.688	0.67	0.444	0.492	0.211	0.269	0.175	0.951	0.963	1	0.796	0.929	0.663	0.648	0.462	0.336	0.287
NCI-H2023	0.256	0.195	0.228	0.227	0.182	0.255	0.27	0.167	0.155	0.0782	0.706	0.595	0.63	0.559	0.619	0.451	0.451	0.343	0.344	0.144
LC-2-ad	0.773	0.678	0.741	0.854	0.776	0.369	0.333	0.204	0.167	0.113	0.961	0.956	0.942	0.702	0.824	0.554	0.772	0.561	0.385	0.26
NCI-H1666	0.711	0.607	0.743	0.695	0.707	0.46	0.486	0.39	0.358	0.388	1.18	0.936	0.972	0.712	0.852	0.613	0.617	0.668	0.561	0.389
201T	0.901	0.868	0.889	0.869	0.941	0.677	0.691	0.64	0.601	0.533	1.01	0.964	1.08	0.934	1	0.467	0.491	0.363	0.418	0.278
NCI-H2009	0.412	0.392	0.377	0.423	0.392	0.795	0.691	0.43	0.54	0.149	0.991	1.2	1.16	1.14	1.13	0.51	0.46	0.437	0.465	0.235
NCI-H1395	0.791	0.694	0.753	0.797	0.695	0.597	0.542	0.536	0.463	0.405	1.1	1.04	1.17	1.02	1.08	0.451	0.432	0.422	0.484	0.312
LU99A	0.923	0.76	0.901	0.834	0.377	0.298	0.312	0.253	0.205	0.179	0.499	0.547	0.545	0.476	0.454	0.819	0.76	0.627	0.438	0.315
NCI-H1437	0.601	0.566	0.572	0.566	0.669	0.466	0.491	0.375	0.245	0.14	0.985	0.923	0.988	0.639	0.901	0.343	0.349	0.241	0.292	0.16
